Here are results for 35 compounds from patent US20250026769A1, “PAPD5 INHIBITORS AND METHODS OF USE THEREOF” (The Children's Medical Center Corporation, priority 2021, published 2025).

The structures appear in SMILES notation.

T1 sequence (Q8NDF8 68-698 isoform Q8NDF8-5 limits assumed): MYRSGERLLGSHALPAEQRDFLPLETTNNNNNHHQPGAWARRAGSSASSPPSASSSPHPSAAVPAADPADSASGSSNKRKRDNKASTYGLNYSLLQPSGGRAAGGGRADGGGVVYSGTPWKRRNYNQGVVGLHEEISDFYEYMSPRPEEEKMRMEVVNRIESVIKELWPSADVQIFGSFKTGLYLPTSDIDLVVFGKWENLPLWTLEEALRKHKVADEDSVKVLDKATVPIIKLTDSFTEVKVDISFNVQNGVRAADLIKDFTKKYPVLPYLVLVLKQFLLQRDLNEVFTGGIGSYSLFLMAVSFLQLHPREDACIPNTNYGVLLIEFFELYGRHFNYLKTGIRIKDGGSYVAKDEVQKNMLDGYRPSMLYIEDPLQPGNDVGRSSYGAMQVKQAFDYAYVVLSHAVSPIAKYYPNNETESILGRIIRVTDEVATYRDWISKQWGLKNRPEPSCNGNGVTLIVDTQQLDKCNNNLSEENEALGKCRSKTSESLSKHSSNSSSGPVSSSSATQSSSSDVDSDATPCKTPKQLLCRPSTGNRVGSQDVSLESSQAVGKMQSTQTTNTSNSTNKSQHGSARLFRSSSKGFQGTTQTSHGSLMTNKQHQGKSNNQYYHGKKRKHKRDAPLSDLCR

One assay concerns the target T1, rPAPD5 (Homo sapiens, UniProt Q8NDF8).
T1 construct: made in house
As to the kind of experiment: differential scanning fluorimetry (DSF) binding and stabilization of rPAPD5. To be noted: 1 μM test compound (Table 2a); read-out: ΔTm at 1 μM. In short, it runs like this:
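Compound-induced shifts in rPAPD5 melting temperature were determined by thermal shift (DSF). Protein at […] was mixed with a non-extendable ATP analog […] in Tris-HCl (25 mM), MgCl2 (5 mM) and KCl (50 mM), with SYPRO orange at 1:5000. Curves were averages of three measurements analyzed with Thermal Shift software, and ΔTm was referenced to DMSO.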
Background: DSF heats the sample and reads unfolding from a dye or from intrinsic fluorescence.
On to `O=C(O)c1cc(Cl)ccc1Nc1c(-c2nnn[nH]2)cnc2ccc(Cl)cc12` [Compound 359A, 5-chloro-2-[[6-chloro-3-(1H-tetrazol-5-yl)-4-quinolyl]amino]benzoic acid], for which the ΔTm at 1 µM is greater than 5 °C.

Consider `O=C(O)c1cc(Cl)ccc1Nc1c(S(=O)(=O)N2CCS(=O)(=O)CC2)cnc2ccc(Cl)cc12` [Compound 429A, 5-chloro-2-[[6-chloro-3-[(1,1-dioxo-1,4-thiazinan-4-yl)sulfonyl]-4-quinolyl]amino]benzoic acid], for which the ΔTm at 1 µM was greater than 5 °C.

Still in this assay, the particulars now being: 10 μM test compound (Table 2a); read-out: ΔTm at 10 μM.
For `O=C(O)c1cc(Cl)ccc1Nc1c(-c2nnn[nH]2)cnc2ccc(Cl)cc12` [Compound 359A, 5-chloro-2-[[6-chloro-3-(1H-tetrazol-5-yl)-4-quinolyl]amino]benzoic acid], the ΔTm at 10 µM is greater than 5 °C.

For `O=C(O)c1cc(Cl)ccc1Nc1c(S(=O)(=O)N2CCS(=O)(=O)CC2)cnc2ccc(Cl)cc12` [Compound 429A, 5-chloro-2-[[6-chloro-3-[(1,1-dioxo-1,4-thiazinan-4-yl)sulfonyl]-4-quinolyl]amino]benzoic acid], the ΔTm at 10 µM was greater than 5 °C.

The assay is the same for the next values; noted with them: 100 μM test compound; shift vs DMSO control; read-out: ΔTm at 100 μM.
In the case of `O=C(O)c1ccc(Cl)cc1Nc1c(S(=O)(=O)N2CCOCC2)cnc2ccc(Cl)cc12` [Compound 274A, 4-chloro-2-[(6-chloro-3-morpholinosulfonyl-4-quinolyl)amino]benzoic acid], the ΔTm at 100 µM was greater than 5 °C.

Turning to `O=C(O)c1ccc(F)cc1Nc1c(S(=O)(=O)N2CCOCC2)cnc2ccc(Cl)cc12` [Compound 275A, 2-[(6-chloro-3-morpholinosulfonyl-4-quinolyl)amino]-4-fluoro-benzoic acid], the ΔTm at 100 µM was greater than 5 °C.

As to `O=C(O)c1ccc(Br)cc1Nc1c(S(=O)(=O)N2CCOCC2)cnc2ccc(Cl)cc12` [Compound 276A, 4-bromo-2-[(6-chloro-3-morpholinosulfonyl-4-quinolyl)amino]benzoic acid], the ΔTm at 100 µM is greater than 5 °C.

As to `COc1ccc(C(=O)O)c(Nc2c(S(=O)(=O)N3CCOCC3)cnc3ccc(Cl)cc23)c1` [Compound 277A, 2-[(6-chloro-3-morpholinosulfonyl-4-quinolyl)amino]-4-methoxy-benzoic acid], the ΔTm at 100 µM is greater than 5 °C.

`O=C(O)c1ccc(C(F)(F)F)cc1Nc1c(S(=O)(=O)N2CCOCC2)cnc2ccc(Cl)cc12` [Compound 278A, 2-[(6-chloro-3-morpholinosulfonyl-4-quinolyl)amino]-4-(trifluoromethyl)benzoic acid]: the ΔTm at 100 µM is 1 to 5 °C.

Turning to `O=C(O)c1cccc(O)c1Nc1c(S(=O)(=O)N2CCOCC2)cnc2ccc(Cl)cc12` [Compound 279A, 2-[(6-chloro-3-morpholinosulfonyl-4-quinolyl)amino]-3-hydroxy-benzoic acid], the ΔTm at 100 µM was in the range of 1 to 5 °C.

In the case of `O=C(O)c1cccc(Cl)c1Nc1c(S(=O)(=O)N2CCOCC2)cnc2ccc(Cl)cc12` [Compound 280A, 3-chloro-2-[(6-chloro-3-morpholinosulfonyl-4-quinolyl)amino]benzoic acid], the shift in melting temperature (ΔTm) at 100 µM was greater than 5 °C.

`O=C(O)c1cccc(F)c1Nc1c(S(=O)(=O)N2CCOCC2)cnc2ccc(Cl)cc12` [Compound 281A, 2-[(6-chloro-3-morpholinosulfonyl-4-quinolyl)amino]-3-fluoro-benzoic acid]: the ΔTm at 100 µM is greater than 5 °C.

With `O=C(O)c1cccc(Br)c1Nc1c(S(=O)(=O)N2CCOCC2)cnc2ccc(Cl)cc12` [Compound 282A, 3-bromo-2-[(6-chloro-3-morpholinosulfonyl-4-quinolyl)amino]benzoic acid], the ΔTm at 100 µM is greater than 5 °C.

On to `Cc1cccc(C(=O)O)c1Nc1c(S(=O)(=O)N2CCOCC2)cnc2ccc(Cl)cc12` [Compound 283A, 2-[(6-chloro-3-morpholinosulfonyl-4-quinolyl)amino]-3-methyl-benzoic acid], for which the ΔTm at 100 µM was greater than 5 °C.

On to `COc1cccc(C(=O)O)c1Nc1c(S(=O)(=O)N2CCOCC2)cnc2ccc(Cl)cc12` [Compound 284A, 2-[(6-chloro-3-morpholinosulfonyl-4-quinolyl)amino]-3-methoxy-benzoic acid], for which the ΔTm at 100 µM was 1 to 5 °C.

For the compound `O=C(O)c1cccc(C(F)(F)F)c1Nc1c(S(=O)(=O)N2CCOCC2)cnc2ccc(Cl)cc12` [Compound 285A, 2-[(6-chloro-3-morpholinosulfonyl-4-quinolyl)amino]-3-(trifluoromethyl)benzoic acid], the ΔTm at 100 µM is less than 1 °C.

`O=C(O)c1ccc(B(O)O)cc1Nc1c(S(=O)(=O)N2CCOCC2)cnc2ccc(Cl)cc12` [Compound 289A, 4-borono-2-[(6-chloro-3-morpholinosulfonyl-4-quinolyl)amino]benzoic acid]: the ΔTm at 100 µM was greater than 5 °C.

Regarding `NS(=O)(=O)c1ccc(Nc2c(S(=O)(=O)N3CCOCC3)cnc3ccc(Cl)cc23)c(C(=O)O)c1` [Compound 290A, 2-[(6-chloro-3-morpholinosulfonyl-4-quinolyl)amino]-5-sulfamoyl-benzoic acid], the ΔTm at 100 µM is less than 1 °C.

As to `O=S(=O)(c1cnc2ccc(Cl)cc2c1Nc1ccccc1B(O)O)N1CCOCC1` [Compound 292A, [2-[(6-chloro-3-morpholinosulfonyl-4-quinolyl)amino]phenyl]boronic acid], the ΔTm at 100 µM lay within 1 to 5 °C.

As to `O=C(O)c1cc(C(O)C(F)(F)F)ccc1Nc1c(S(=O)(=O)N2CCOCC2)cnc2ccc(Cl)cc12` (stereo not drawn) [Compound 293A, 2-[(6-chloro-3-morpholinosulfonyl-4-quinolyl)amino]-5-(2,2,2-trifluoro-1-hydroxy-ethyl)benzoic acid], the ΔTm at 100 µM is 1 to 5 °C.

In the case of `O=C(O)c1ccccc1Nc1c(C2=CCSCC2)cnc2ccc(Cl)cc12` [Compound 299A, 2-[[6-chloro-3-(3,6-dihydro-2H-thiopyran-4-yl)-4-quinolyl]amino]benzoic acid], the ΔTm at 100 µM was greater than 5 °C.

For the compound `O=C(O)c1cc(F)ccc1Nc1c(-c2ncco2)cnc2ccc(Cl)cc12` [Compound 300A, 2-[(6-chloro-3-oxazol-2-yl-4-quinolyl)amino]-5-fluoro-benzoic acid], the ΔTm at 100 µM is greater than 5 °C.

Consider `COc1ccc(Nc2c(-c3ncco3)cnc3ccc(Cl)cc23)c(C(=O)O)c1` [Compound 302A, 2-[(6-chloro-3-oxazol-2-yl-4-quinolyl)amino]-5-methoxy-benzoic acid], for which the ΔTm at 100 µM is greater than 5 °C.

Consider `O=C(O)c1cc(F)ccc1Nc1c(C2=CCOCC2)cnc2ccc(Cl)cc12` [Compound 304A, 2-[[6-chloro-3-(3,6-dihydro-2H-pyran-4-yl)-4-quinolyl]amino]-5-fluoro-benzoic acid], for which the ΔTm at 100 µM was greater than 5 °C.

As for `COc1ccc(Nc2c(C3=CCOCC3)cnc3ccc(Cl)cc23)c(C(=O)O)c1` [Compound 308A, 2-[[6-chloro-3-(3,6-dihydro-2H-pyran-4-yl)-4-quinolyl]amino]-5-methoxy-benzoic acid], the thermal shift (ΔTm) at 100 µM was greater than 5 °C.

Consider `CCc1ccc(Nc2c(S(=O)(=O)N3CCOCC3)cnc3ccc(Cl)cc23)c(C(=O)O)c1` [Compound 318A, 2-[(6-chloro-3-morpholinosulfony 1-4-quinolyl)amino]-5-ethyl-benzoic acid], for which the ΔTm at 100 µM is greater than 5 °C.

Regarding `CCCc1ccc(Nc2c(S(=O)(=O)N3CCOCC3)cnc3ccc(Cl)cc23)c(C(=O)O)c1` [Compound 319A, 2-[(6-chloro-3-morpholinosulfonyl-4-quinolyl)amino]-5-propyl-benzoic acid], the ΔTm at 100 µM lay in the range of 1 to 5 °C.

Consider `CC(C)c1ccc(Nc2c(S(=O)(=O)N3CCOCC3)cnc3ccc(Cl)cc23)c(C(=O)O)c1` [Compound 320A, 2-[(6-chloro-3-morpholinosulfonyl-4-quinolyl)amino]-5-isopropyl-benzoic acid], for which the ΔTm at 100 µM fell in the range of 1 to 5 °C.

As to `O=C(O)c1ccccc1Nc1c(S(=O)(=O)N2CCOCC2)cnc2ccc(B(O)O)cc12` [Compound 321A, 2-[(6-borono-3-morpholinosulfonyl-4-quinolyl)amino]benzoic acid], the shift in melting temperature (ΔTm) at 100 µM is less than 1 °C.

On to `O=C(O)c1ccccc1Nc1c(S(=O)(=O)N2CCOCC2)cnc2ccc(O)cc12` [Compound 322A, 2-[(6-hydroxy-3-morpholinosulfonyl-4-quinolyl)amino]benzoic acid], for which the ΔTm at 100 µM was greater than 5 °C.

As to `O=C(O)c1ccccc1Nc1c(C2CCS(=O)(=O)CC2)c[n+]([O-])c2ccc(Cl)cc12` [Compound 323A, 2-[[6-chloro-3-(1,1-dioxothian-4-yl)-1-oxido-quinolin-1-ium-4-yl]amino]benzoic acid], the ΔTm at 100 µM is greater than 5 °C.

For `O=C(O)c1c(Nc2c(S(=O)(=O)N3CCOCC3)cnc3ccc(Cl)cc23)ccc(Cl)c1O` [Compound 324A, 3-chloro-6-[(6-chloro-3-morpholinosulfonyl-4-quinolyl)amino]-2-hydroxy-benzoic acid], the ΔTm at 100 µM was greater than 5 °C.

Take `O=C(O)c1cc(Cl)ccc1Sc1c(S(=O)(=O)N2CCOCC2)cnc2ccc(Cl)cc12` [Compound 330A, 5-chloro-2-[(6-chloro-3-morpholinosulfonyl-4-quinolyl)sulfanyl]benzoic acid]: the ΔTm at 100 µM was greater than 5 °C.

Consider `N#Cc1ccc(Nc2c(S(=O)(=O)N3CCOCC3)cnc3ccc(Cl)cc23)c(C(=O)O)c1` [Compound 338A, 2-[(6-chloro-3-morpholinosulfonyl-4-quinolyl)amino]-5-cyano-benzoic acid], for which the ΔTm at 100 µM was greater than 5 °C.

Turning to `O=C(O)c1cc(Cl)ccc1Nc1c(-c2nnn[nH]2)cnc2ccc(Cl)cc12` [Compound 359A, 5-chloro-2-[[6-chloro-3-(1H-tetrazol-5-yl)-4-quinolyl]amino]benzoic acid], the ΔTm at 100 µM is greater than 5 °C.

In the case of `O=C(O)c1ccc(Nc2c(S(=O)(=O)N3CCOCC3)cnc3ccc(Cl)cc23)c(C(=O)O)c1` [Compound 398A, 4-[(6-chloro-3-morpholinosulfonyl-4-quinolyl)amino]benzene-1,3-dicarboxylic acid], the ΔTm at 100 µM is less than 1 °C.

Regarding `O=C(O)c1cc(Cl)ccc1Nc1c(S(=O)(=O)N2CCS(=O)(=O)CC2)cnc2ccc(Cl)cc12` [Compound 429A, 5-chloro-2-[[6-chloro-3-[(1,1-dioxo-1,4-thiazinan-4-yl)sulfonyl]-4-quinolyl]amino]benzoic acid], the ΔTm at 100 µM is greater than 5 °C.

The assay is the same for the next values; noted with them: read-out: ΔTm at 100 μM.
On to `O=C(O)c1ccccc1Sc1c(S(=O)(=O)N2CCOCC2)cnc2ccc(Cl)cc12` [Compound 328A], for which the ΔTm at 100 µM was in the range of 1 to 5 °C.

Take `NC(=O)c1ccc(Nc2c(S(=O)(=O)N3CCOCC3)cnc3ccc(Cl)cc23)c(C(=O)O)c1` [Compound 373A, 5-carbamoyl-2-[(6-chloro-3-morpholinosulfonyl-4-quinolyl)amino]benzoic acid]: the ΔTm at 100 µM was 1 to 5 °C.

As usually defined, the ΔTm is the shift of the melting midpoint relative to a reference.
